This is an account of results in PMC5490399, “Glycosaminoglycan Binding and Non-Endocytic Membrane Translocation of Cell-Permeable Octaarginine Monitored by Real-Time In-Cell NMR Spectroscopy” (Pharmaceuticals, 2017).

Non-standard residues stand in square brackets, D forms with d. Residues, ends and D or L forms follow the SMILES beside them. Phe(4-CF3) = N[C@@H](Cc1ccc(C(F)(F)F)cc1)C(=O)O

Holding throughout (assay type): cell-based, human
The test system of series [1] is HL60 cells. How it is done:
(§1) One-dimensional in-cell ^19F NMR measurements were carried out at 376.2 MHz by using a JEOL ECA400 NMR spectrometer equipped with a superconducting magnet of 9.4 T. A multinuclear probe (JEOL, NM40T10A/AT) for a 10-mm diameter tube was used. Detailed procedures of the measurement are described elsewhere. Briefly, HL60 cells (the final concentration, 1 × 10^7 cells/mL) were suspended in phosphate-buffered saline (PBS, pH 7.4) at 4 °C and put into a NMR tube. In order to confirm no contribution of energy-dependent endocytosis at 4 °C, the comparative measurement was also performed at 37 °C. To avoid cellular toxicity, the amount of D2O used for the signal lock was decreased to 10%. The sample was gently rotated to prevent the sedimentation of the cells. Field-gradient shimming was applied before the addition of the peptide, to quickly attain the spectral resolution. The measurements started immediately after the thermal equilibrium was attained, 1.5 min after the addition of the ^19F-labeled peptides. […] Cell viability, assessed by the trypan blue staining after the NMR measurement at 4 °C, was 92% ± 1% for ^19F-R8 and 94% ± 1% for ^19F-T6 with respect to the control value, 94% ± 2%. […]
Cell peptide concentrations inside and outside were estimated by using the signal intensities of real-time ^19F NMR difference spectra in Figure 2b. Figure A1 illustrates how peptide concentrations were determined from the ^19F NMR spectra. […]
The concentration of these three components can be evaluated from the signal intensities by integrating the respective peak areas. […] Since the total ^19F-R8 concentration is 80 μM, the concentrations of free, bound to GAG, and membrane components are calculated to be […], 9, and 5 μM, respectively.
Figure A1 Illustration of the signal intensity estimation in the ^19F NMR difference spectrum. […] The concentration of these three components can be evaluated from the signal intensities by integrating the respective peak areas (see text).

For series [2], the system named is HL60 cells. Briefly: Steady state 19F NMR after cell fractionation (final distribution). The following applies: 19F NMR at 4 °C. How it is done: In the previous sections, we succeeded in comprehensive observation and quantitative analysis of the non-endocytic translocation of ^19F-R8 to the cell inside. To confirm that ^19F-R8 is actually transferred to cytosol across the cell membrane, the final distribution of ^19F-R8 was evaluated by cell fractionation after equilibrium was attained in real-time NMR measurements. Membrane solubilization and centrifugation techniques were combined in accordance with Scheme 1. First, we examined how much of ^19F-R8 was finally bound to cells. In Figure 7a, the ^19F NMR spectra of ^19F-R8 in the supernatant I is compared with total ^19F-R8 as a control at 4 °C. The ^19F NMR signal intensity of the supernatant I corresponds to ^19F-R8 that is still in a free (unbound) state under equilibrium. […] The value is consistent with the result of the real-time in-cell NMR measurement showing about 65 μM (81%) of ^19F-R8 is remaining in a free state after the equilibrium is attained (Figure 6). Next, to confirm that ^19F-R8 is actually bound to HL60 cell, the cell pellet I was solubilized by lysis buffer containing 1% Triton X-100. After the centrifugation, the supernatant II was subject to ^19F NMR measurement at 4 °C. The spectrum is shown in Figure 7b as Lysate, and 13% of the initial ^19F-R8 was detected.
It is considered that three components of ^19F-R8 are contained in the Lysate. They include ^19F-R8 bound to GAG or cell membrane, and ^19F-R8 in cytosol. We separated these components as the supernatant III and the pellet III by centrifuging the Lysate at 100,000× g. Supernatant III consists of ^19F-R8 in cytosol, and pellet III contains ^19F-R8 bound to GAG or cell membrane (referred as Membrane); see Scheme 1. […] It should be noted that the observed chemical shift of NMR signal in this system is too complicated to understand. For example, the cell solubilization exposes ^19F-R8 to numerous molecules derived from cells. Also, the cytosol fraction was obtained by lyophilization of 50 mL lysis buffer A. This leads to the increased concentrations of components (Triton X-100, Tris-HCl, EDTA, NaCl in lysis buffer A) in the final sample to be measured. The condition of the solvent such as ionic strength and pH affects the chemical shift of ^19F-R8 NMR signal. Thus the integral NMR intensity is useful for the steady state NMR spectra because it is basically proportional to the nuclear concentration.
The amount of ^19F-R8 finally delivered to the cytosol was quantified by ^19F NMR under equilibrium in combination with the cell fractionation using membrane solubilization and centrifugation. The cell fractionation procedures are summarized in Scheme 1. After the real-time ^19F NMR measurement, 4 mL of the sample were centrifuged at 1500× g for 5 min at 4 °C. Pellet I was washed twice with 4 mL of PBS and centrifuged again. Then the 8 mL of supernatant I was collected and subject to ^19F NMR measurement at 4 °C, to quantify free ^19F-R8. Next, 4 mL of lysis buffer A (1% Triton X-100, 50 mM Tris-HCl, 50 mM EDTA, 150 mM NaCl, 10% D2O) was added to pellet I, and left for 15 min on ice to complete the cell membrane solubilization. The solution was centrifuged at 15,000× g for 15 min at 4 °C, to separate pellet II and supernatant II. Then, supernatant II was collected and subjected to ^19F NMR measurement at 4 °C (called Lysate). After measurement, 50 mL of lysis buffer A was added and centrifuged at 100,000× g for 3 h at 4 °C. […]

Series [3] concerns HL60 cells. The following applies: 100 μM. On the procedure:
as §1, with “peptides. The final concentrations of ^19F-R8 and ^19F-T6 were 80 μM and 100 μM, respectively, and these were high enough to observe non-endocytic translocation.” for “peptides.”

With `CC(=O)N[C@@H](Cc1ccc(C(F)(F)F)cc1)C(=O)N[C@@H](CCCNC(=N)N)C(=O)N[C@@H](CCCNC(=N)N)C(=O)N[C@@H](CCCNC(=N)N)C(=O)N[C@@H](CCCNC(=N)N)C(=O)N[C@@H](CCCNC(=N)N)C(=O)N[C@@H](CCCNC(=N)N)C(=O)N[C@@H](CCCNC(=N)N)C(=O)N[C@@H](CCCNC(=N)N)C(N)=O` [^19F-R8], the “time at which transfer to cytosol was first observed” value in series [1] (HL60, PBS pH 7.4, 4 °C, 80 μM peptide) is “around 5 min”. In addition, the “degradation of peptide in the presence of HL60 cells (integral 19F NMR intensity)” value in series [1] (pH 7.4) was “no degradation”. Moreover, in series [2] (HL60, after real-time NMR at 4 °C, centrifugation 1500× g, pH 7.4, versus total peptide), the “peptide in a free state (supernatant I) under equilibrium” value turned out to be 77%. Also, in series [2] (Lysate centrifuged at 100,000× g), the “peptide in cytosol fraction (supernatant III)” value was “observed in the cytosol fraction”. For the same compound, in series [2] (Lysate centrifuged at 100,000× g, equilibrium state), the “peptide in membrane fraction (pellet III)” value is “within the experimental error”. Moreover, the “peptide detected in Lysate (supernatant II), of the initial peptide” value in series [2] (pellet I solubilized with 1% Triton X-100 lysis buffer, 15,000× g, pH 7.5) amounted to 13%. Moreover, in series [2] (pellet II solubilized), the “peptide in DNA and cytoskeleton fraction (pellet II)” value is on record as “not yet detectable”.

Consider `CC[C@H](C)[C@H](NC(=O)CNC(=O)[C@H](CO)NC(=O)[C@H](CC(=O)O)NC(=O)[C@H](Cc1ccc(C(F)(F)F)cc1)NC(=O)[C@@H](NC(=O)[C@@H](N)[C@@H](C)O)C(C)C)C(=O)N[C@@H](CO)C(=O)N[C@@H](CCC(=O)O)C(=O)N[C@H](C(=O)N[C@@H](CCCNC(=N)N)C(=O)O)C(C)C` [^19F-T6, reference compound] (H-TV[Phe(4-CF3)]DSGISEVR-OH), for which the “interaction with HL60 cells (change of 19F NMR and difference spectrum)” value in series [1] is listed as “no interaction occurs”. Besides, the Cell viability in series [3] is listed as 94% ± 1%.
